Experimental findings from ChEMBL document CHEMBL1201862, “PubChem BioAssay data set” (2004) are described below.

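Briefly, cells in 96-well plates were exposed to five compound concentrations for 48 h, and endpoints were estimated by linear interpolation. Here, GI50 denotes the concentration required for 50% inhibition of growth.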 The source made the active and inactive calls. No stated cut-off is given here; in the data, active = GI50 up to about 1.1 µM and inactive = higher.

Common to all, as to experiment: NCI tumour cell line growth inhibition, 48 h
The subject of test [1] is CCRF-CEM.
In test [2] the test system is NCI-H23.
The subject of test [3] is SN12C.
The test system of test [4] is HOP-62.
In test [5] the test system is HOP-92.
The subject of test [6] is SF-268.
Test [7] relates to ACHN.
Test [8] deals with Malme-3M.
Test [9] has as its system HCT-15.
Test [10] relates to IGROV-1.
Test [11] concerns NCI-H460.
For test [12], the system named is SK-MEL-28.
Test [13] concerns SK-MEL-5.
Test [14] concerns SNB-75.

`O=C(CCc1cc(-c2ccccc2)nc(S)n1)N(Cc1ccccc1)Cc1ccccc1`: the GI50 in [1] was > 100 µM (inactive); in test [2], > 100 µM (inactive); in [3] it was > 100 µM (inactive); in test [4], > 100 µM (inactive); in [5] it was 97.3 µM (inactive); in test [6], > 100 µM (inactive). In addition, the GI50 is > 100 µM (inactive) in test [7]; > 100 µM (inactive) in test [8]; above 100 µM in test [9]; > 100 µM (inactive) in test [10]; > 100 µM (inactive) in test [11].

Turning to `COC(=O)/C(=N/Nc1cccc(Cl)c1)C(C(=O)C(=O)Nc1cccc(Cl)c1C)c1nc2ccccc2nc1C` (centres undefined), the GI50 in test [1] is 62.5 µM (inactive); in test [2], > 100 µM (inactive); in test [12], 92.3 µM (inactive); in test [3], 60.7 µM (inactive); in test [4] it was 38.3 µM (inactive); in [6], > 100 µM (inactive). Besides, the GI50 in test [7] was 11.6 µM (inactive); in test [8], 55 µM (inactive); in test [10], 41.7 µM (inactive); in test [13], 36 µM (inactive); in [11], 48.8 µM (inactive).

`COC[n+]1cc2cc(OC)c(OC)cc2c2ccc3cc(OC)c(OC)cc3c21`: the GI50 in test [1] is 98.2 µM (inactive); in [2], > 100 µM (inactive); in test [14], > 100 µM (inactive); in [12], > 100 µM (inactive); in test [3], > 100 µM (inactive); in test [4] it was > 100 µM (inactive). In addition, the GI50 was > 100 µM (inactive) in test [5]; > 100 µM (inactive) in test [6]; > 100 µM (inactive) in test [7]; > 100 µM (inactive) in [8]; above 100 µM in test [9]; > 100 µM (inactive) in test [10]. In addition, the GI50 in test [13] and in test [11] was > 100 µM (inactive) in each case.

As to `NCCn1ccc(NC(c2ccccc2)(c2ccccc2)c2ccccc2)nc1=O`, the GI50 was > 10 µM (inactive) in test [2]; 16.7 µM (inactive) in test [14]; 20.2 µM (inactive) in test [12]; 20.3 µM (inactive) in [3]; 30.1 µM (inactive) in test [4]; 13.4 µM (inactive) in test [5]. Moreover, the GI50 in test [6] is 16.3 µM (inactive); in [7], 54.7 µM (inactive); in [8], 18.6 µM (inactive); in [9] it was above 100 µM; in test [10], 40.7 µM (inactive); in test [11], 20.3 µM (inactive).

With `CCCOP1(=O)C=C(O)C(Cl)=C(C)C1` (centres undefined), the GI50 in test [1], in test [2], in test [14], in test [12], in test [3] and in [4] was > 100 µM (inactive) throughout. Further, the GI50 was > 100 µM (inactive) in test [5]; > 100 µM (inactive) in test [6]; > 100 µM (inactive) in [7]; > 100 µM (inactive) in [8]; above 100 µM in test [9]; > 100 µM (inactive) in test [10]. In addition, the GI50 in test [13] and in test [11] was > 100 µM (inactive) each time.

On to `CCOC(=O)CC1COc2ccc3c(c21)OCO3` (centres undefined), for which the GI50 in test [1], in [2], in test [14], in test [12], in test [3] and in [4] was > 100 µM (inactive) throughout. In addition, the GI50 in test [5] is > 100 µM (inactive); in test [7], > 100 µM (inactive); in test [8] it was > 100 µM (inactive); in [9], above 100 µM; in test [10], > 100 µM (inactive); in [13], > 100 µM (inactive). Besides, the GI50 in test [11] was > 100 µM (inactive).

`O=C1CCC(=O)C(C(=O)CCC(=O)Nc2cccc(Cl)c2)C1` (centres undefined): the GI50 in test [1], in test [2], in test [14], in [3], in [4] and in test [5] was > 100 µM (inactive) in each case. In addition, the GI50 was > 100 µM (inactive) in [7]; > 100 µM (inactive) in [8]; above 100 µM in test [9]; > 100 µM (inactive) in [10]; > 100 µM (inactive) in test [13]; > 100 µM (inactive) in test [11].

`COC(=O)C(CC(=O)Nc1ccc(Cl)c(Cl)c1)C(=O)C(=O)NC1C2CC3CC(C2)CC1C3` (centres undefined): the GI50 in test [1], in [2], in test [12], in [3], in [4] and in test [5] was > 100 µM (inactive) throughout. In addition, the GI50 was > 100 µM (inactive) in [6]; > 100 µM (inactive) in [7]; > 100 µM (inactive) in [8]; above 100 µM in test [9]; > 100 µM (inactive) in test [10]; > 100 µM (inactive) in test [13]. Besides, the GI50 in [11] is > 100 µM (inactive).

Turning to `Cc1c(/C=N/N=C/c2[nH]c(C(=O)OC(C)(C)C)c(C)c2C)[nH]c(C(=O)OC(C)(C)C)c1C`, the GI50 in test [1] was 70.1 µM (inactive); in test [2], > 100 µM (inactive); in test [14], 33 µM (inactive); in test [3] it was > 100 µM (inactive); in test [4], > 100 µM (inactive); in [5] it was 67.8 µM (inactive). Also, the GI50 in test [6] is > 100 µM (inactive); in test [8] it was > 100 µM (inactive); in test [9] it was above 100 µM; in test [10] it was > 100 µM (inactive); in [13], > 100 µM (inactive); in [11] it was 81.5 µM (inactive).

For `CCCCCCCCCCC(O)CCCCCCC(=O)O` (centres undefined), the GI50 in test [1] is 27.5 µM (inactive); in test [2] it was 35 µM (inactive); in test [14], 42.5 µM (inactive); in test [12] it was 45.8 µM (inactive); in test [3], 21.1 µM (inactive); in [4] it was 35.9 µM (inactive). Moreover, the GI50 was 18.1 µM (inactive) in test [5]; 77.4 µM (inactive) in test [6]; 22.5 µM (inactive) in [7]; 26.2 µM (inactive) in test [8]; 18.2 µM (inactive) in [10]; 16 µM (inactive) in [13]. For the same molecule, the GI50 in test [11] is 16.3 µM (inactive).

`O=C(OCc1ccccc1)N1N=NC2C3CC(OCc4ccccc4)(OCc4ccccc4)C(O3)C21` (centres undefined): the GI50 in test [1] is 21.3 µM (inactive); in [2], 12.8 µM (inactive); in test [14], 24.3 µM (inactive); in test [12], 21.3 µM (inactive); in test [3] it was 41.9 µM (inactive); in [4], 24.7 µM (inactive). The GI50 was 12.6 µM (inactive) in [5]; 22.4 µM (inactive) in [6]; 29.6 µM (inactive) in test [7]; 16.1 µM (inactive) in test [8]; 34 µM in test [9]; 49.5 µM (inactive) in test [10]. Moreover, the figures for the GI50 in test [13] and in test [11] were 9.66 µM (inactive) and 39.9 µM (inactive), respectively.

With `Cc1cc(NS(=O)(=O)c2ccc(Nc3c4ccccc4nc4c(C(=O)N5CCN(CCOS(C)(=O)=O)CC5)cccc34)cc2)no1`, the GI50 in test [1] is 43.4 µM (inactive); in test [2], > 100 µM (inactive); in test [14], > 100 µM (inactive); in test [12], > 100 µM (inactive); in test [3] it was > 100 µM (inactive); in [4], > 100 µM (inactive). Besides, the GI50 in test [5] is > 100 µM (inactive); in test [6], > 100 µM (inactive); in test [7], > 100 µM (inactive); in test [8], > 100 µM (inactive); in test [9] it was above 100 µM; in [10], > 100 µM (inactive). In addition, the GI50 in [13] and in test [11] was > 100 µM (inactive) throughout.

In the case of `O=[PH](O)c1ccccn1`, the GI50 in [1], in test [2], in test [14], in test [12], in test [3] and in test [4] was > 100 µM (inactive) each time. Further, the GI50 was > 100 µM (inactive) in test [5]; > 100 µM (inactive) in test [6]; > 100 µM (inactive) in test [7]; > 100 µM (inactive) in test [8]; above 100 µM in [9]; > 100 µM (inactive) in [10]. For the same molecule, the GI50 in test [13] and in [11] was > 100 µM (inactive) each time.

`COC(=O)/C(=C/c1ccc(OC)cc1)C(C(=O)O)=C(C)C`: the GI50 in test [1], in test [2], in test [12], in [3], in test [4] and in test [5] was > 100 µM (inactive) in each case. Moreover, the GI50 in test [6] is > 100 µM (inactive); in test [8], > 100 µM (inactive); in test [9], above 100 µM; in test [10] it was > 100 µM (inactive); in test [13] it was > 100 µM (inactive); in test [11], > 100 µM (inactive).

Turning to `CCOC(=O)C1S/C(=N\c2ccccc2)N=C1C` (centres undefined), the GI50 was 67.3 µM (inactive) in test [2]; 26.9 µM (inactive) in test [14]; > 100 µM (inactive) in test [12]; > 100 µM (inactive) in test [3]; > 100 µM (inactive) in test [4]; 22.3 µM (inactive) in test [5]. Also, the GI50 in test [6] was 60.1 µM (inactive); in [7] it was 39.7 µM (inactive); in [8], > 100 µM (inactive); in test [9], 55.5 µM; in [10], > 100 µM (inactive); in test [11], 79.1 µM (inactive).

Take `NC(C(=O)O)c1ccc(C(=O)O)cc1` (centres undefined): the GI50 in test [1], in test [2], in [14], in test [12], in test [3] and in [4] was > 100 µM (inactive) throughout. For the same molecule, the GI50 in test [6] is > 100 µM (inactive); in test [7] it was > 100 µM (inactive); in [8] it was > 100 µM (inactive); in test [9], above 100 µM; in test [10], > 100 µM (inactive); in [13] it was > 100 µM (inactive). In addition, the GI50 in [11] is > 100 µM (inactive).
